Results taken from patent publication US9546401B2, “Assays and methods for selecting a treatment regimen for a subject with depression” (The General Hospital Corporation, priority 2011, dated 2017).
Like-named read-outs stand apart in the source and are kept apart here.

Test system: MDD patients carrying the indicated biomarkers
Conditions: for HAMD-17 change, Effect / HAMD-28 change, Effect: + SSRI
Method: Folate levels are classified as either low (<=2.5 ng/ml) or normal; and homocysteine levels as either normal or elevated (>=[…]). The presence or absence of at least one […] allele for the MTHFR gene are entered as a dichotomous variable (present or absent). […] Using folate as an example predicator, the presence or absence of a low serum-folate level along with treatment assignment can be entered in a 2×2, factorial ANOVA, using depression improvement scores (baseline minus endpoint HAM-D-17 scores) as the dependant variable. […] Similar analyses (i.e. separate 2×2 ANOVA's) can be performed substituting the presence of low folate levels for the presence of other predictors as described herein. Similarly, the effect of other predictors can be indicated by the interaction term representing the potential modulating influence of those variables.
The efficacy effect is determined by measuring the mean change in the HAMD-17 score and HAMD-28 score by the end of Phase I and Phase II, as compared to the baseline.

[1] = A + B: BMI > 30 & LOW SAM/SAH RATIO, N = 13
[2] = A + C: BMI > 30 & HIGH 4-HNE, N = 12
[3] = A + D: BMI > 30 & MTHFR 677 CT/TT, N = 9
[4] = A + E + F: BMI > 30 & MTR 2756 AG/GG & MTRR 66 AG/GG, N = 4
[5] = A + E: BMI > 30 & MTR 2756 AG/GG, N = 5
[6] = B + C: LOW SAM/SAH RATIO & HIGH 4-HNE, N = 11
[7] = B + E + F: LOW SAM/SAH RATIO & MTR 2756 AG/GG & MTRR 66 AG/GG, N = 5
[8] = B + E: LOW SAM/SAH RATIO & MTR 2756 AG/GG, N = 6
[9] = B + F: LOW SAM/SAH RATIO & MTRR 66 AG/GG, N = 11
[10] = C + D: HIGH 4-HNE & MTHFR 677 CT/TT, N = 8
[11] = C + E + F: HIGH 4-HNE & MTR 2756 AG/GG & MTRR 66 AG/GG, N = 4
[12] = C + E: HIGH 4-HNE & MTR 2756 AG/GG, N = 9
[13] = C + F: HIGH 4-HNE & MTRR 66 AG/GG, N = 15
[14] = D + E: MTHFR 677 CT/TT & MTR 2756 AG/GG, N = 4
[15] = E + F: MTR 2756 AG/GG & MTRR 66 AG/GG, N = 8
[16] = MTHFR 677 CC and MTR 2756 AA, Phase I
[17] = MTHFR 677 CC and MTR 2756 AA, Phase II
[18] = MTHFR 677 CC and MTR 2756 AA, Pooled phases
[19] = MTHFR 677 CT or TT and MTR 2756 AG or GG, Phase I
[20] = MTHFR 677 CT or TT and MTR 2756 AG or GG, Phase II
[21] = MTHFR 677 CT or TT and MTR 2756 AG or GG, Pooled phases
[22] = MTR 2756 AA and MTRR 66 AA and BMI < 30 kg/m^2, Phase II
[23] = MTR 2756 AG or GG and MTRR 66 AG or GG and BMI >= 30 kg/m^2, Phase I
[24] = MTR 2756 AG or GG and MTRR 66 AG or GG and BMI >= 30 kg/m^2, Phase II
[25] = MTR 2756 AG or GG and MTRR 66 AG or GG and BMI >= 30 kg/m^2, Pooled phases

SMILES: CN1c2c(nc(N)[nH]c2=O)NC[C@@H]1CNc1ccc(C(=O)N[C@@H](CCC(=O)O)C(=O)O)cc1 [6(S)-5-MTHF, 6(S)-5-methyltetrahydrofolate]
- Pooled Effect Size HAMD-17 [1]: −7.302
- Pooled Effect Size HAMD-28 [1]: −7.572
- Pooled Effect Size HAMD-17 [2]: −5.420
- Pooled Effect Size HAMD-28 [2]: −5.996
- Pooled Effect Size HAMD-17 [3]: −8.090
- Pooled Effect Size HAMD-28 [3]: −9.884
- Pooled Effect Size HAMD-17 [4]: −10.972
- Pooled Effect Size HAMD-28 [4]: −15.347
- Pooled Effect Size HAMD-17 [5]: −11.714
- Pooled Effect Size HAMD-28 [5]: −14.433
- Pooled Effect Size HAMD-17 (A: BMI > 30, N = 21): −4.600
- Pooled Effect Size HAMD-28 (A: BMI > 30, N = 21): −4.660
- Pooled Effect Size HAMD-17 [6]: −9.898
- Pooled Effect Size HAMD-28 [6]: 9.500
- Pooled Effect Size HAMD-17 [7]: −7.640
- Pooled Effect Size HAMD-28 [7]: −11.620
- Pooled Effect Size HAMD-17 [8]: −5.583
- Pooled Effect Size HAMD-28 [8]: −11.683
- Pooled Effect Size HAMD-17 [9]: −5.879
- Pooled Effect Size HAMD-28 [9]: −6.879
- Pooled Effect Size HAMD-17 (B: LOW SAM/SAH RATIO, N = 18): −3.622
- Pooled Effect Size HAMD-28 (B: LOW SAM/SAH RATIO, N = 18): −4.572
- Pooled Effect Size HAMD-17 [10]: −9.446
- Pooled Effect Size HAMD-28 [10]: −9.865
- Pooled Effect Size HAMD-17 [11]: −7.942
- Pooled Effect Size HAMD-28 [11]: −10.241
- Pooled Effect Size HAMD-17 [12]: −8.072
- Pooled Effect Size HAMD-28 [12]: −9.508
- Pooled Effect Size HAMD-17 [13]: −4.850
- Pooled Effect Size HAMD-28 [13]: −6.582
- Pooled Effect Size HAMD-17 (C: HIGH 4-HNE, N = 21): −4.175
- Pooled Effect Size HAMD-28 (C: HIGH 4-HNE, N = 21): 4.554
- Pooled Effect Size HAMD-17 [14]: −18.710
- Pooled Effect Size HAMD-28 [14]: −23.290
- Pooled Effect Size HAMD-17 [15]: −6.976
- Pooled Effect Size HAMD-28 [15]: −9.348
- Pooled Effect Size HAMD-17 (E: MTR 2756 AG/GG, N = 11): −5.677
- Pooled Effect Size HAMD-28 (E: MTR 2756 AG/GG, N = 11): −8.243
- effect in carriers of both variants relative to the sum of the individual biomarker effects (HAMD-28 mean change, MTHFR T + MTR G): at least 2 fold
- HAMD-17 change, Effect [16]: −0.700
- HAMD-28 change, Effect [16]: −0.192
- HAMD-17 change, Effect [17]: −0.571
- HAMD-28 change, Effect [17]: 0.048
- HAMD-17 change, Effect [18]: 0.722
- HAMD-28 change, Effect [18]: 0.711
- HAMD-17 change, Effect [19]: −13.47
- HAMD-28 change, Effect [19]: −18.00
- HAMD-17 change, Effect [20]: −10.33
- HAMD-28 change, Effect [20]: −13.00
- HAMD-17 change, Effect [21]: −18.71
- HAMD-28 change, Effect [21]: −23.29
- HAMD-17 change, Effect [22]: −4.333
- HAMD-28 change, Effect [22]: −4.667
- HAMD-17 change, Effect [23]: −13.667
- HAMD-28 change, Effect [23]: −18.833
- HAMD-17 change, Effect [24]: −11.000
- HAMD-28 change, Effect [24]: −12.000
- HAMD-17 change, Effect [25]: −10.972
- HAMD-28 change, Effect [25]: −15.347
- Pooled Effect Size HAMD-17 (OVERALL, N = 73): −2.264
- Pooled Effect Size HAMD-28 (OVERALL, N = 73): −2.738
- Effect on change in HAMD-17 score (Phase I, 25 =< BMI < 30 kg/m^2): 2.600
- Effect on change in HAMD-28 score (Phase I, 25 =< BMI < 30 kg/m^2): 2.602
- Effect on change in HAMD-17 score (Phase I, BMI < 25): 1.576
- Effect on change in HAMD-28 score (Phase I, BMI < 25): 0.909
- Effect on change in HAMD-17 score (Phase I, BMI < 30 kg/m^2 and HNE-His < median): 3.771
